The nature of assay [1]: Photoacoustic spectra of contaminated heparin in the presence of methylene blue. The settings on record: 5 wt. % contaminated heparin. The source says: In one exemplary implementation, the photoacoustic imaging system used for measurements is a Vevo 2100 commercial instrument (Visualsonics). The scanner is equipped with a 21 MHz-centered transducer (LZ250) and a Q-switched Nd:YAG laser. The laser uses an optical parameteric oscillator and second harmonic generator to generate a tunable laser between 680 and 970 nm with a 1 nm step size and a pulse of 4 to 6 ns at 20 Hz. The peak energy is 45±5 mJ at 20 Hz at the source. The full field-of-view is 14-23 mm wide. The acquisition rate is 5 frames per second. The samples were prepared in small tubing fixed in a self-developed phantom holder which was aligned at ˜10 mm under the transducer. The laser energy was calibrated and optimized using the build-in energy power meter and software before measurements. 100% laser energy was used with 21 MHz frequency and the gain was optimized from 10-40 dB to obtain 3D scans at 680-850 nm as well as photoacoustic spectra from 680 to 850 nm.
1×PBS solution was prepared via dissolving one PBS tablet into 200 mL deionized water. The 2 mM methylene blue was prepared fresh by dissolving reagent-grade powder in PBS followed by sonication for 30 minutes at 40 C and then filtering through 0.22 μm. The 0.4 mM methylene blue was prepared by dissolving 2 mM methylene blue with PBS. A batch of OSCS/heparin mixture that simulates OSCS contaminated heparin was prepared at the following steps: 100 μL of 50, 25, 5, 2.5, 0.5, 0.25 μg/mL OSCS, and PBS was added into 100 uL 1000 μg/mL heparin prepared in PBS solution, respectively. The working concentration of OSCS in the above solutions was 25, 12.5, 2.5, 1.25, 0.25, 0.125, 0.025, and 0 μg/mL OSCS, respectively, and the working concentration of heparin is 500 μg/mL. In other words, the heparin solution was contaminated by 5, 2.5, […], 0.05, 0.025, and 0%. The contrast signal of methylene blue/heparin mixture was optimized at the combination of 0.4 mM methylene blue and […]. […]
Data analysis were performed using the scanner's built-in software. […] The average and standard deviation were calculated. […]

For assay [2], the target named is Antithrombin (Homo sapiens, UniProt P01008). As to conditions: cited from earlier work.
Chain of Antithrombin (P01008 33-464): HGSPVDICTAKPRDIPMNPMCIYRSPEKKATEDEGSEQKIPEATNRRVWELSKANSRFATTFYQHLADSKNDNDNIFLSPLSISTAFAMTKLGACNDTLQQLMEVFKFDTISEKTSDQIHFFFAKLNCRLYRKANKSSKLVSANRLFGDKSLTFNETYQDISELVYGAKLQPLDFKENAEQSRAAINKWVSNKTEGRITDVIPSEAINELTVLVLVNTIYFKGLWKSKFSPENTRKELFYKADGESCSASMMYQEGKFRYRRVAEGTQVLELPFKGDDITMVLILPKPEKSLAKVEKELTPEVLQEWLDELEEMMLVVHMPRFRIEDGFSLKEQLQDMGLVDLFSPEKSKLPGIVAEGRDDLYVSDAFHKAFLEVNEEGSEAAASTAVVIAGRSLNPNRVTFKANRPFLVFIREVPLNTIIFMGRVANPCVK
Assay [3] in a line: Photoacoustic response of nanoparticle-bound methylene blue coating to heparin and protamine. As to conditions: 50 U/mL heparin-treated device, protamine 8 mg/mL. As to the method: The surface charge of these nanoparticle is −23 mV, which is too negative to allow association between the nanoparticle-bound dye and negatively charged heparin. Therefore, the charge of the particle was changed to produce a material that was both stable and responsive to heparin. To tune the nanoparticles, the same were treated with (3-mercaptopropyl) trimethoxysilane (MPTMS) to adjust the zeta potential to −15 mV (SSNP-SH). This material was used with agar gel to create a coating on a catheter tube.
More importantly, the methylene blue on these modified nanoparticles remain responsive to heparin with 51% more photoacoustic signal at 10 U/mL heparin than PBS for 1 h incubation. The signal enhancement was stable after constant imaging at 680 nm for 9 min (RSD<4%) This system was also reversible. When the 50 U/mL-treated device was reversed with protamine (8 mg/mL), the signal decreased by 42% versus no protamine treatment. The higher signal of the heparin-treated hybrid versus PBS-treated hybrid is likely due to interactions between methylene blue and heparin, which increases the photoacoustic signal and decreases diffusion of this complex and free methylene blue into solution.

With chondroitin sulfate [CS], the “715 nm peak amplified compared to pure heparin in methylene blue” value in assay [1] worked out at 476%.

In the case of dermatan sulfate [DS], the “715 nm peak amplified compared to pure heparin in methylene blue” value in assay [1] is listed as 475%.

In the case of heparin, the “increase of the activity of antithrombin” value in assay [2] is 10^3 fold.

Regarding oversulfated chondroitin sulfate [OSCS], the “715 nm peak amplified compared to pure heparin in methylene blue” value in assay [1] is 400%.

Regarding protamine sulfate, the “signal decrease versus no protamine treatment” value in assay [3] is on record as 42%.

The values above are taken from patent publication US20190029637A1, “A WEARABLE SENSOR, AND METHOD, TO MONITOR ANTI-COAGULATION THERAPY” (The Regents of the University of California, priority 2016, published 2019).
